{"source": "patent US20150313228A1", "about": "“SYNERGISTIC HERBICIDAL COMBINATIONS AND METHODS OF USE” (priority 2012, published 2015)", "assay_type_in_all_cases": "in vivo", "key": {"[1]": {"test_system": "sicklepod", "assay": "Pre-emergence application in sicklepod under greenhouse conditions (Example 4)", "settings": "18 days after application", "text": "(§1) The following testing protocol was employed to evaluate the pre-emergence application of herbicides and herbicide combinations as described in the following examples unless otherwise specified. The weed species to be treated were planted in 3.5 inch pots containing a 50:50 silt loam:redi-earth soil mix. Immediately after such planting (i.e., pre-emergence), herbicide was applied to the soil mix at the specified application rate using a track sprayer with a flat even nozzle type, 9501E nozzle size, and spray pressure of 165 kPa. All herbicides were incorporated into the germination zone with 0.25 inch of overhead irrigation three days after spraying. Additional sub-irrigation was provided to achieve adequate soil moisture for germination. After the incorporation of the herbicide(s), the pots were only overhead irrigated as needed. Throughout the test period, temperature was maintained from about 20° C. to about 30° C. and relative humidity was maintained at about 30%. The plants were rated visually and percentage of weed control was determined for each treatment at 19 days after herbicide application.\n(§2) Pre-emergence application of several herbicides and herbicide combinations was evaluated in sicklepod under greenhouse conditions. The plants were rated visually and percentage of weed control was determined at 18 days after herbicide application. The herbicides and herbicide combinations evaluated are listed in Table 4-A below together with the corresponding percent control data. The data represent an average value (n=6).\nThe results of the analysis are reported below in Table 4-B (dicamba+metribuzin), Table 4-C(acetochlor+metribuzin), and Table 4-D (acetochlor+dicamba)."}, "[2]": {"test_system": "Palmer amaranth", "assay": "Pre-emergence application in Palmer amaranth under greenhouse conditions (Example 1)", "settings": "18 days after application", "text": "as §1\nas §2, with “Palmer amaranth” for “sicklepod”, “1-A” for “4-A”\nThe results of the analysis are reported below in Table 1-B (dicamba+metribuzin), Table 1-C(acetochlor+metribuzin), and Table 1-D (acetochlor+dicamba)."}, "[3]": {"test_system": "wild Proso millet", "assay": "Pre-emergence application in wild Proso millet under greenhouse conditions (Example 3)", "settings": "16 days after application", "text": "as §1\nas §2, with “wild Proso millet” for “sicklepod”, “16” for “18”, “3-A” for “4-A”\nThe results of the analysis are reported below in Table 3-B (dicamba+metribuzin), Table 3-C (acetochlor+metribuzin), and Table 3-D (acetochlor+dicamba)."}, "[4]": {"test_system": "morning glory", "assay": "Pre-emergence application in morning glory under greenhouse conditions (Example 2)", "settings": "18 days after application", "text": "as §1\nas §2, with “morning glory” for “sicklepod”, “2-A” for “4-A”\nThe results of the analysis are reported below in Table 2-B (dicamba+metribuzin), Table 2-C(acetochlor+metribuzin), and Table 2-D (acetochlor+dicamba)."}, "[5]": {"test_system": "ryegrass", "assay": "Pre-emergence application in ryegrass under greenhouse conditions (Example 6)", "settings": "16 days after application", "text": "as §1\nas §2, with “ryegrass” for “sicklepod”, “16” for “18”, “6-A” for “4-A”\nThe results of the analysis are reported below in Table 6-B (dicamba+metribuzin), Table 6-C(acetochlor+metribuzin), and Table 6-D (acetochlor+dicamba)."}, "[6]": {"test_system": "Johnsongrass", "assay": "Pre-emergence application in Johnsongrass under greenhouse conditions (Example 5)", "settings": "16 days after application", "text": "as §1\nas §2, with “Johnsongrass” for “sicklepod”, “16” for “18”, “5-A” for “4-A”\nThe results of the analysis are reported below in Table 5-B (dicamba+metribuzin), Table 5-C(acetochlor+metribuzin), and Table 5-D (acetochlor+dicamba)."}, "[7]": {"test_system": "Palmer amaranth", "assay": "Post-emergence application in Palmer amaranth under greenhouse conditions (Example 7)", "settings": "24 days after application", "text": "The following testing protocol was employed to evaluate the post-emergence application of herbicides and herbicide combinations as described in the following examples unless otherwise specified. The weed species to be treated were planted in 3.5 inch pots containing redi-earth potting mix and grown under greenhouse conditions. When the weed species reached a height of about four inches, herbicide was applied at the specified application rate using a track sprayer with a flat even nozzle type, 9501E nozzle size, and spray pressure of 165 kPa. After the application of the herbicide(s), the pots were only sub-irrigated as needed. Throughout the test period, temperature was maintained from about 20° C. to about 30° C. and relative humidity was maintained at about 30%. The plants were rated visually and percentage of weed control was determined for each treatment at 15 to 21 days after herbicide application.\nas §2, with “Post-emergence” for “Pre-emergence”, “Palmer amaranth” for “sicklepod”, “24” for “18”, “7-A” for “4-A”\nThe results of the analysis are reported below in Table 7-B (glyphosate+dicamba), Table 7-C(glyphosate+metribuzin), and Table 7-D (dicamba+metribuzin)."}}}
{"smiles": "CCOCN(C(=O)CCl)c1c(C)cccc1CC", "note": "[Acetochlor, 2-chloro-N-(ethoxymethyl)-6′-ethyl-o-acetotoluidide]", "values": [{"measurement": "PERCENT CONTROL", "setting": "[1]; 840 g/ha", "value": 4.0, "unit": "%"}, {"measurement": "PERCENT CONTROL", "setting": "[1]; 1260 g/ha", "value": 5.8, "unit": "%"}, {"measurement": "PERCENT CONTROL", "setting": "[2]; 840 g/ha", "value": 65.8, "unit": "%"}, {"measurement": "PERCENT CONTROL", "setting": "[2]; 1260 g/ha", "value": 90.8, "unit": "%"}, {"measurement": "PERCENT CONTROL", "setting": "[3]; 840 g/ha", "value": 74.2, "unit": "%"}, {"measurement": "PERCENT CONTROL", "setting": "[3]; 1260 g/ha", "value": 84.0, "unit": "%"}, {"measurement": "PERCENT CONTROL", "setting": "[4]; 840 g/ha", "value": 5.0, "unit": "%"}, {"measurement": "PERCENT CONTROL", "setting": "[4]; 1260 g/ha", "value": 7.5, "unit": "%"}, {"measurement": "PERCENT CONTROL", "setting": "[5]; 840 g/ha", "value": 82.5, "unit": "%"}, {"measurement": "PERCENT CONTROL", "setting": "[5]; 1260 g/ha", "value": 86.7, "unit": "%"}, {"measurement": "PERCENT CONTROL", "setting": "[6]; 840 g/ha", "value": 94.8, "unit": "%"}, {"measurement": "PERCENT CONTROL", "setting": "[6]; 1260 g/ha", "value": 100.0, "unit": "%"}]}
{"smiles": "COc1c(Cl)ccc(Cl)c1C(=O)O", "note": "[Dicamba, 3,6-dichloro-2-methoxy benzoic acid]", "values": [{"measurement": "PERCENT CONTROL", "setting": "[1]; 280 g/ha", "value": 42.0, "unit": "%"}, {"measurement": "PERCENT CONTROL", "setting": "[1]; 560 g/ha", "value": 84.0, "unit": "%"}, {"measurement": "PERCENT CONTROL", "setting": "[2]; 280 g/ha", "value": 88.3, "unit": "%"}, {"measurement": "PERCENT CONTROL", "setting": "[2]; 560 g/ha", "value": 84.2, "unit": "%"}, {"measurement": "PERCENT CONTROL", "setting": "[7]; 280 g/ha", "value": 100.0, "unit": "%"}, {"measurement": "PERCENT CONTROL", "setting": "[7]; 560 g/ha", "value": 100.0, "unit": "%"}, {"measurement": "PERCENT CONTROL", "setting": "[3]; 280 g/ha", "value": 43.3, "unit": "%"}, {"measurement": "PERCENT CONTROL", "setting": "[3]; 560 g/ha", "value": 74.2, "unit": "%"}, {"measurement": "PERCENT CONTROL", "setting": "[4]; 280 g/ha", "value": 38.0, "unit": "%"}, {"measurement": "PERCENT CONTROL", "setting": "[4]; 560 g/ha", "value": 81.7, "unit": "%"}, {"measurement": "PERCENT CONTROL", "setting": "[5]; 280 g/ha", "value": 31.7, "unit": "%"}, {"measurement": "PERCENT CONTROL", "setting": "[5]; 560 g/ha", "value": 56.7, "unit": "%"}, {"measurement": "PERCENT CONTROL", "setting": "[6]; 280 g/ha", "value": 71.7, "unit": "%"}, {"measurement": "PERCENT CONTROL", "setting": "[6]; 560 g/ha", "value": 83.3, "unit": "%"}]}
{"smiles": "CSc1nnc(C(C)(C)C)c(=O)n1N", "note": "[Metribuzin, 4-amino-6-(1,1-dimethylethyl)-3-(methylthio)-1,2,4-triazin-5(4H)-one]", "values": [{"measurement": "PERCENT CONTROL", "setting": "[1]; 420 g/ha", "value": 56.7, "unit": "%"}, {"measurement": "PERCENT CONTROL", "setting": "[1]; 840 g/ha", "value": 100.0, "unit": "%"}, {"measurement": "PERCENT CONTROL", "setting": "[2]; 420 g/ha", "value": 100.0, "unit": "%"}, {"measurement": "PERCENT CONTROL", "setting": "[2]; 840 g/ha", "value": 100.0, "unit": "%"}, {"measurement": "PERCENT CONTROL", "setting": "[7]; 420 g/ha", "value": 20.0, "unit": "%"}, {"measurement": "PERCENT CONTROL", "setting": "[7]; 840 g/ha", "value": 26.0, "unit": "%"}, {"measurement": "PERCENT CONTROL", "setting": "[3]; 420 g/ha", "value": 100.0, "unit": "%"}, {"measurement": "PERCENT CONTROL", "setting": "[3]; 840 g/ha", "value": 100.0, "unit": "%"}, {"measurement": "PERCENT CONTROL", "setting": "[4]; 420 g/ha", "value": 16.7, "unit": "%"}, {"measurement": "PERCENT CONTROL", "setting": "[4]; 840 g/ha", "value": 63.8, "unit": "%"}, {"measurement": "PERCENT CONTROL", "setting": "[5]; 420 g/ha", "value": 33.3, "unit": "%"}, {"measurement": "PERCENT CONTROL", "setting": "[5]; 840 g/ha", "value": 66.7, "unit": "%"}, {"measurement": "PERCENT CONTROL", "setting": "[6]; 420 g/ha", "value": 84.2, "unit": "%"}, {"measurement": "PERCENT CONTROL", "setting": "[6]; 840 g/ha", "value": 100.0, "unit": "%"}]}
